The numbers were not newly measured in patent publication US20230082870A1, “COMPOSITION FOR CALCIUM SUPPLEMENTATION” (ABIOGEN PHARMA S.P.A., priority 2017, published 2023), which cites them from elsewhere.

Each structure is given as a SMILES string.

For this data set the following is noted: state of the art.

On to `O=C([O-])CC(O)(CC(=O)[O-])C(=O)[O-].O=C([O-])CC(O)(CC(=O)[O-])C(=O)[O-].[Ca+2].[Ca+2].[Ca+2]` [calcium citrate], for which the “Bioavailability, higher than that of calcium carbonate” value is listed as 20-30%.
